Measurements published in ChEMBL document CHEMBL4433204, “Design, synthesis and docking study of novel picolinamide derivatives as anticancer agents and VEGFR-2 inhibitors” (Eur J Med Chem, 2019).
One block for each compound: values may come before it. Active and inactive are the calls of the source. The rule behind the calls is not given here.

Columns and labels:
[1] = system: A549; assay: Anticancer activity against human A549 cells assessed as reduction in cell viability incubated for 48 hrs by MTT assay; settings: A549, 48 h
[2] = target: T1, Tyrosine-protein kinase Mer (Homo sapiens, UniProt Q12866); assay: Inhibition of human MER incubated for 90 mins by ELISA method
T1 sequence (Q12866 whole entry): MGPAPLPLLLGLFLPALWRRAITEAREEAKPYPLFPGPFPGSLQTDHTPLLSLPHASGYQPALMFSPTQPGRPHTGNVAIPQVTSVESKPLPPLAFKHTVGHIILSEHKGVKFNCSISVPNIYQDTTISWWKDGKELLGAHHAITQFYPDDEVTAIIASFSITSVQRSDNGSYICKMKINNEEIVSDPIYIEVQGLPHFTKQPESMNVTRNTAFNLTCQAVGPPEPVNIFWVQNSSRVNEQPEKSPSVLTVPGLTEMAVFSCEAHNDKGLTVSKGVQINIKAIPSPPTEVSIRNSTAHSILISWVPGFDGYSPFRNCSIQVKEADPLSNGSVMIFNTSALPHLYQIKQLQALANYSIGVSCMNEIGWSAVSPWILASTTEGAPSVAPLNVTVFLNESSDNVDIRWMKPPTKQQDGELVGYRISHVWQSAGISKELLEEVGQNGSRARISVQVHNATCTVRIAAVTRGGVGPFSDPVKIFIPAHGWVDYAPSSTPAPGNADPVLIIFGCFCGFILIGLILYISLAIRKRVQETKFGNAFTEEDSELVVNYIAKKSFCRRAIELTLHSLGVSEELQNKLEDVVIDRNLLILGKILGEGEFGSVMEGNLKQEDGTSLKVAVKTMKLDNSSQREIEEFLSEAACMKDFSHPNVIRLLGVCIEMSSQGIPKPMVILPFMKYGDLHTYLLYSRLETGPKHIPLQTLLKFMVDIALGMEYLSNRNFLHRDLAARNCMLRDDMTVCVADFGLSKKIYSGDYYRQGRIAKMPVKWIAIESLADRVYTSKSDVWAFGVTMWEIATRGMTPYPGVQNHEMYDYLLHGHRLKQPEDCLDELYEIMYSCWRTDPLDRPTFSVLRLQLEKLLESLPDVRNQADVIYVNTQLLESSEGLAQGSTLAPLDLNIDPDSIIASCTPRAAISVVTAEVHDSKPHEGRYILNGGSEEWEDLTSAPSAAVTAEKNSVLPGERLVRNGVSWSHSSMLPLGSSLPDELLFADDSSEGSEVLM

[3] = target: Receptor tyrosine-protein kinase erbB-2 (Homo sapiens, UniProt P04626); assay: Inhibition of human HER2 in human A549 cells by ELISA method; format: cell-based
[4] = target: Vascular endothelial growth factor receptor 2 (Homo sapiens, UniProt P35968); assay: Inhibition of human VEGFR2 in human A549 cells incubated for over night by ELISA method; format: cell-based
[5] = system: PANC-1; assay: Anticancer activity against human PANC1 assessed as reduction in cell viability at 100 uM incubated for 48 hrs by MTT assay relative to control; format: functional
[6] = target: Epidermal growth factor receptor (Homo sapiens, UniProt P00533); assay: biochemical; format: cell-based, Sf9
[7] = system: HT-29; assay: Anticancer activity against human HT-29 assessed as reduction in cell viability at 100 uM incubated for 48 hrs by MTT assay relative to control; format: functional
[8] = target: Hepatocyte growth factor receptor (Homo sapiens, UniProt P08581); assay: Inhibition of human c-MET incubated for 2 hrs by ELISA method
[9] = system: A549; assay: Cell cycle arrest in human A549 cells assessed as accumulation at pre-G1 phase at 2 uM after […] by propidium iodide staining-based flow cytometric method (reference value: 0.36%); format: functional
[10] = system: A549; assay: Cell cycle arrest in human A549 cells assessed as accumulation at S phase at 2 uM after 24 hrs by propidium iodide staining-based flow cytometric method (reference value: 26.79%); format: functional
[11] = system: A549; assay: Induction of apoptosis in human A549 cells assessed as reduction in MCL-1 protein level after 2 hrs by sandwich ELISA method; format: functional, cell-based; settings: A549, 2 h
[12] = system: A549; assay: Induction of apoptosis in human A549 cells assessed as total apoptotic cells at 2 uM after 24 hrs by Annexin V-FITC/propidium iodide double staining based flow cytometry relative to control; format: functional
[13] = system: A549; assay: Induction of apoptosis in human A549 cells assessed as necrotic cells at 2 uM after 24 hrs by Annexin V-FITC/propidium iodide double staining based flow cytometry (reference value: 0.1%); format: functional
[14] = system: A549; assay: Induction of apoptosis in human A549 cells assessed as late apoptotic cells at 2 uM after 24 hrs by Annexin V-FITC/propidium iodide double staining based flow cytometry (reference value: 0.11%); format: functional
[15] = system: A549; assay: Cell cycle arrest in human A549 cells assessed as accumulation at G0/G1 phase at 2 uM after 24 hrs by propidium iodide staining-based flow cytometric method (reference value: 65.63%); format: functional
[16] = system: A549; assay: Induction of apoptosis in human A549 cells assessed as viable cells at 2 uM after 24 hrs by Annexin V-FITC/propidium iodide double staining based flow cytometry (reference value: 97.87%); format: functional; settings: A549, 24 h, read-out: Activity
[17] = system: A549; assay: Induction of apoptosis in human A549 cells assessed as measuring caspase-3 levels after 2 hrs by sandwich ELISA method relative to control; format: functional
[18] = system: A549; assay: Cell cycle arrest in human A549 cells assessed as accumulation at G2/M phase at 2 uM after 24 hrs by propidium iodide staining-based flow cytometric method (reference value: 7.22%); format: functional
[19] = system: A549; assay: Induction of apoptosis in human A549 cells assessed as early apoptotic cells at 2 uM after 24 hrs by Annexin V-FITC/propidium iodide double staining based flow cytometry (reference value: […]); format: functional
[20] = system: A549; assay: Induction of apoptosis in human A549 cells assessed as measuring caspase-3 levels after 2 hrs by sandwich ELISA method (reference value: 57.22 pg/ml); format: functional
[21] = system: HT-29; assay: Anticancer activity against human HT-29 assessed as reduction in cell viability incubated for 48 hrs by MTT assay; settings: HT-29, 48 h
[22] = system: OVCAR-3; assay: Anticancer activity against human OVCAR3 assessed as reduction in cell viability incubated for 48 hrs by MTT assay; settings: OVCAR-3, 48 h
[23] = system: PANC-1; assay: Anticancer activity against human PANC1 assessed as reduction in cell viability incubated for 48 hrs by MTT assay; settings: PANC-1, 48 h
[24] = system: 786-0; assay: Anticancer activity against human 786-O assessed as reduction in cell viability at 100 uM incubated for 48 hrs by MTT assay relative to control; format: functional
[25] = system: OVCAR-3; assay: Anticancer activity against human OVCAR3 assessed as reduction in cell viability at 100 uM incubated for 48 hrs by MTT assay relative to control; format: functional

Sequence of Receptor tyrosine-protein kinase erbB-2 (P04626 whole entry): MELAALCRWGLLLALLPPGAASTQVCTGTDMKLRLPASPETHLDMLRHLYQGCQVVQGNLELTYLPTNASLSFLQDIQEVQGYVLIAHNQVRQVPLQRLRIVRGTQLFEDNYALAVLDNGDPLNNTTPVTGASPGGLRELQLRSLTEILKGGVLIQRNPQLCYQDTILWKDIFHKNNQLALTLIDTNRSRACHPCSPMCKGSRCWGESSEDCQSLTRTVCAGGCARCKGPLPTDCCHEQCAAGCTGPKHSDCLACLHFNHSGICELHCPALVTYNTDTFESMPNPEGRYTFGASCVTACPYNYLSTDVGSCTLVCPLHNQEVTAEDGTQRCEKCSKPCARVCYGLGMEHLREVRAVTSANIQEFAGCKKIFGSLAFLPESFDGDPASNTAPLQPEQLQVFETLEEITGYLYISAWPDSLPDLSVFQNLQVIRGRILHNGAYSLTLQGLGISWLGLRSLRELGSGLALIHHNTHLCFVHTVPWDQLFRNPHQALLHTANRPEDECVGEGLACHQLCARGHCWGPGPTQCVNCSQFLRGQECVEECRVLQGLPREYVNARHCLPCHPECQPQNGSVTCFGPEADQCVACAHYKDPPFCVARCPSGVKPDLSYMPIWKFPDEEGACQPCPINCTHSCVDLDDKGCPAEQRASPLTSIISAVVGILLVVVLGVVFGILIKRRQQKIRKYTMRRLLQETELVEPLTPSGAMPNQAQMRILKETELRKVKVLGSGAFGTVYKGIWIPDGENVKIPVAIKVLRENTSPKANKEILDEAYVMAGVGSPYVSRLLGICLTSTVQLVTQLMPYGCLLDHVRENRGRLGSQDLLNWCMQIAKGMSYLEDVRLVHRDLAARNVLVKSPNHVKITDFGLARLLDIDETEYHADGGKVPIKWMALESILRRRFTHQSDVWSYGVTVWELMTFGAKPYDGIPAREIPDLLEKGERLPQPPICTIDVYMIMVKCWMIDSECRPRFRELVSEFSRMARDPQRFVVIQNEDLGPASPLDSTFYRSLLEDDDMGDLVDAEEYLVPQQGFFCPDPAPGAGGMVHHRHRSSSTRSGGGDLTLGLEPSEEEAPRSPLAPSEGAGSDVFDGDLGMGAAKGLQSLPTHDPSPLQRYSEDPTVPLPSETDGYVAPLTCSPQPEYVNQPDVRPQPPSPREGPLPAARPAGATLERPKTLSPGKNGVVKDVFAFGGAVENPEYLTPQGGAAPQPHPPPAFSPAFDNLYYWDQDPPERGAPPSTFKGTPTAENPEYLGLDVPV
Sequence of Epidermal growth factor receptor (P00533 whole entry): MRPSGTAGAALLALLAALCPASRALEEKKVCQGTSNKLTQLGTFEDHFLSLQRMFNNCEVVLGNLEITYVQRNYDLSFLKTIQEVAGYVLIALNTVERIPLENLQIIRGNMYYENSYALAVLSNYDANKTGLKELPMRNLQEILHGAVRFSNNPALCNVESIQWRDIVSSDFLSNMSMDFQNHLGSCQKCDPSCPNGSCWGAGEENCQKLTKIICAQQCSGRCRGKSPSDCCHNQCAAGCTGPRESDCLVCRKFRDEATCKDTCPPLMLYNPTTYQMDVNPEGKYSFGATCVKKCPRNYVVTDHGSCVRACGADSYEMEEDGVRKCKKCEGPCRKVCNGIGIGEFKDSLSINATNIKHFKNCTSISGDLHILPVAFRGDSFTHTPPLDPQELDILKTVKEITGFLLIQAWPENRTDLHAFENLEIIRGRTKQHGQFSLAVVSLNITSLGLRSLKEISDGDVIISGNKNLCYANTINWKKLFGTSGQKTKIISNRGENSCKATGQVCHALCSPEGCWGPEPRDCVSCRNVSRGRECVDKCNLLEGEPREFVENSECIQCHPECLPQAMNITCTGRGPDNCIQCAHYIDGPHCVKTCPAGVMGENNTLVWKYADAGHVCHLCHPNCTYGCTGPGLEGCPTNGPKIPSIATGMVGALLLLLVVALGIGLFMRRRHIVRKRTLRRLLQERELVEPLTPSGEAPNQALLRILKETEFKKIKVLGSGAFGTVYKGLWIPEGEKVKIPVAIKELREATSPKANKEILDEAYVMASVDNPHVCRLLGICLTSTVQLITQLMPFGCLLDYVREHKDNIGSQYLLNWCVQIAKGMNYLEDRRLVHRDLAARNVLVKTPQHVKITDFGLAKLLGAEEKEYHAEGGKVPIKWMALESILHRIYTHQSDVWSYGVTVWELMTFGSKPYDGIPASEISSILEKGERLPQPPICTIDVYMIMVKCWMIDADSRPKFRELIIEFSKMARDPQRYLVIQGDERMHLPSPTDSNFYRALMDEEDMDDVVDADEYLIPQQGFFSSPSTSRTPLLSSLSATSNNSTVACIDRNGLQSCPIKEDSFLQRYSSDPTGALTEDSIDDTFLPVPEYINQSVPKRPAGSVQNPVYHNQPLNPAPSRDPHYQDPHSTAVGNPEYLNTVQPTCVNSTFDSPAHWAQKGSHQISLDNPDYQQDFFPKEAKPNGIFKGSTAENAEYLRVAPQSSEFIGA
Sequence of Hepatocyte growth factor receptor (P08581 whole entry): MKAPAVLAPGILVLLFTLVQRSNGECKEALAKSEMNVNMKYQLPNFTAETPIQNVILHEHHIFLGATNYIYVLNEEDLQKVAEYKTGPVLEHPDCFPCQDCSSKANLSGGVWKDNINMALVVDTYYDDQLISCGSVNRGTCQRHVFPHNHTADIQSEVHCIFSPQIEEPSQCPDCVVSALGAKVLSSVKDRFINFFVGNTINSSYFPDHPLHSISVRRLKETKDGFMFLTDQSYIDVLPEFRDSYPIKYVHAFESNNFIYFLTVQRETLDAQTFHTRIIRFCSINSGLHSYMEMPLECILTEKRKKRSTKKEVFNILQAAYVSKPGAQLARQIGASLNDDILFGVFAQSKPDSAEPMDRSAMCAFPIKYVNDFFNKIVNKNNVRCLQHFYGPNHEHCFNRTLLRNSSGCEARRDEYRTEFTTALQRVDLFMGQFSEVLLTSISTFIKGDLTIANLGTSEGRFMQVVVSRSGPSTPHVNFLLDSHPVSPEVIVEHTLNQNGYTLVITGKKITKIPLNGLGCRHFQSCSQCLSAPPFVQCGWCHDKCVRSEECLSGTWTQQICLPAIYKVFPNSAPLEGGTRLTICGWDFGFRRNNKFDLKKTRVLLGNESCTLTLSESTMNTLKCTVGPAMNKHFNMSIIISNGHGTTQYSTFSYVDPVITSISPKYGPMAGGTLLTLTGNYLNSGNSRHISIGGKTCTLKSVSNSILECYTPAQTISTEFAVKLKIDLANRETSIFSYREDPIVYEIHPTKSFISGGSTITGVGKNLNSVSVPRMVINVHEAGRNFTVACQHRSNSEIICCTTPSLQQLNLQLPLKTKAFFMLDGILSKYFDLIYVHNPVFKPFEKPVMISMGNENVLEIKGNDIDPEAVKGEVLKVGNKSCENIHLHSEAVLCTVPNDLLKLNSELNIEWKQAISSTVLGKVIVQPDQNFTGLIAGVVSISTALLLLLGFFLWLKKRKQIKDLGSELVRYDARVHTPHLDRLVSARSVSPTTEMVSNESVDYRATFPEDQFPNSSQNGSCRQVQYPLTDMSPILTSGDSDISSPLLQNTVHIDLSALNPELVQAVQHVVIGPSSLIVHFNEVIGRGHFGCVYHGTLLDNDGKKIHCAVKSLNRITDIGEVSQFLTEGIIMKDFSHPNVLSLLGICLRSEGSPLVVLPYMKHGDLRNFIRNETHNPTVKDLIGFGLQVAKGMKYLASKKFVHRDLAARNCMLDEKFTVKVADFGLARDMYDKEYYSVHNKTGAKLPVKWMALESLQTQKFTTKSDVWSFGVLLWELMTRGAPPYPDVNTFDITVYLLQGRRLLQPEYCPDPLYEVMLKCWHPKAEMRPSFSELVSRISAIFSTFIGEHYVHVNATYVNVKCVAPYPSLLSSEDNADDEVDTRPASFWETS

Structure (SMILES): O=C(Nc1ccc([N+](=O)[O-])cc1)Nc1cccc(NC(=O)c2ccccn2)c1
- IC50 [1]: 0.32 µM

Structure (SMILES): O=C(CSC(=S)N1CCN(c2ccccc2)CC1)Nc1cccc(NC(=O)c2ccccn2)c1
- IC50 [1]: 0.53 µM

Structure (SMILES): O=C(Nc1cccc(NC(=S)Nc2ccc([N+](=O)[O-])cc2)c1)c1ccccn1
- IC50 [1]: 0.45 µM

Structure (SMILES): O=C(CCSC(=S)N1CCCCC1)Nc1cccc(NC(=O)c2ccccn2)c1
- IC50 [1]: 4.12 µM

Structure (SMILES): CC(C)(C)OC(=O)N1CCN(C(=S)SCC(=O)Nc2cccc(NC(=O)c3ccccn3)c2)CC1
- IC50 [1]: 0.18 µM

Structure (SMILES): C=CCN1CCN(C(=S)SCC(=O)Nc2cccc(NC(=O)c3ccccn3)c2)CC1
- IC50 [1]: 0.21 µM

Structure (SMILES): O=C(CSC(=S)N1CCN(C2CCCCC2)CC1)Nc1cccc(NC(=O)c2ccccn2)c1
- IC50 [1]: 0.39 µM

Structure (SMILES): O=C(CSC(=S)N1CCN(c2ncccn2)CC1)Nc1cccc(NC(=O)c2ccccn2)c1
- IC50 [1]: 0.04 µM

Structure (SMILES): O=C(CSC(=S)N1CCOCC1)Nc1cccc(NC(=O)c2ccccn2)c1
- IC50 [1]: 0.05 µM

Structure (SMILES): O=C(CSC(=S)N1CCCCC1)Nc1cccc(NC(=O)c2ccccn2)c1
- Activity [9]: 13.06%
- Activity [10]: 16.66%
- IC50 [11]: 6.7 µM
- IC50 [1]: 0.32 µM
- fold change (FC) [12]: 49
- IC50 [2]: 3.95 µM
- Activity [13]: 1.33%
- Activity [14]: 7.72%
- Activity [15]: 52.92%
- viability at 2 µM [16]: 85.2%
- fold change (FC) [17]: 8.833
- IC50 [3]: 0.104 µM
- IC50 [4]: 0.027 µM
- Activity [18]: 17.36%
- Activity [5]: Active
- IC50 [6]: 0.084 µM
- Activity [19]: 5.01%
- Activity [7]: Active
- Activity [20]: 505.4 pg/mL
- IC50 [8]: 8.3 µM

Structure (SMILES): O=C(CCSC(=S)N1CCN(c2ncccn2)CC1)Nc1cccc(NC(=O)c2ccccn2)c1
- IC50 [1]: 0.46 µM

Structure (SMILES): CN1CCN(C(=S)SCC(=O)Nc2cccc(NC(=O)c3ccccn3)c2)CC1
- IC50 [1]: 1.34 µM

Structure (SMILES): Cc1ccc(NC(=O)Nc2cccc(NC(=O)c3ccccn3)c2)cc1
- IC50 [1]: 0.02 µM

Structure (SMILES): O=C(Nc1cccc(NC(=O)c2ccccn2)c1)NC1CCCCC1
- Activity [24]: <=50%
- IC50 [1]: 6.26 µM
- IC50 [2]: 2.63 µM
- Activity [25]: <=50%
- IC50 [3]: 0.064 µM
- IC50 [4]: 0.087 µM
- Activity [5]: <=50%
- IC50 [6]: 0.147 µM
- Activity [7]: <=50%
- IC50 [8]: 6.22 µM

Structure (SMILES): O=C(CCSC(=S)N1CCOCC1)Nc1cccc(NC(=O)c2ccccn2)c1
- IC50 [1]: 2.42 µM

Structure (SMILES): O=C(Nc1ccccc1)Nc1cccc(NC(=O)c2ccccn2)c1
- IC50 [1]: 5.19 µM

The next lines start with results.

- IC50 [1]: 31.7 µM
- IC50 [2]: 3.12 µM
- IC50 [3]: 0.054 µM
- IC50 [4]: 0.094 µM
- IC50 [6]: 0.07 µM
- IC50 [8]: 17.9 µM
Structure (SMILES): O=C(CCSC(=S)N1CCN(c2ccccc2)CC1)Nc1cccc(NC(=O)c2ccccn2)c1
- Activity [5]: Active
- Activity [7]: Active

- IC50 [1]: 3.62 µM
Structure (SMILES): O=C(Nc1ccc(Cl)cc1)Nc1cccc(NC(=O)c2ccccn2)c1

- IC50 [11]: 5.53 µM
- IC50 [1]: 0.75 µM
- IC50 [21]: 10 µM
- IC50 [22]: 12 µM
- IC50 [23]: 20 µM
Structure (SMILES): CNC(=O)c1cc(Oc2ccc(NC(=O)Nc3ccc(Cl)c(C(F)(F)F)c3)cc2)ccn1 [SORAFENIB]
- Activity [9]: 16.22%
- Activity [10]: 15.51%
- Activity [13]: 1.42%
- Activity [14]: 8.62%
- Activity [15]: 45.13%
- viability at 2 µM [16]: 82%
- Activity [18]: 23.14%
- Activity [19]: 6.18%
- Activity [20]: 515 pg/mL

- IC50 [1]: 2.85 µM
Structure (SMILES): O=C(Nc1cccc(Cl)c1)Nc1cccc(NC(=O)c2ccccn2)c1

- IC50 [1]: 2.99 µM
Structure (SMILES): O=C(NCc1ccccc1)Nc1cccc(NC(=O)c2ccccn2)c1

- IC50 [1]: 4.4 µM
Structure (SMILES): O=C(Nc1cccc(NC(=S)Nc2ccccc2)c1)c1ccccn1

- IC50 [1]: 0.24 µM
Structure (SMILES): O=C(Nc1cccc(NC(=O)c2ccccn2)c1)Nc1ccc2ccccc2c1

- IC50 [1]: 3.72 µM
Structure (SMILES): CCN1CCN(C(=S)SCC(=O)Nc2cccc(NC(=O)c3ccccn3)c2)CC1
